From US10766893B2 (priority 2017, dated 2020)

Tests used:
Assay in all cases: biochemical
Assay type in all cases: biochemical
Settings in all cases: 15 nM tritium labelled cAMP, 1 hr at room temperature
PDE1A = PDE1A (Homo sapiens (Human), UniProt P54750)
Text: (§1) Table 1 lists the IC50 value for inhibition of PDE1 by the compounds of the invention. […] PDE1 assays are described in the Experimental Section.

PDE1C = PDE1C (Homo sapiens (Human), UniProt Q14123)
Text: as §1

PDE1B = PDE1B (Homo sapiens (Human), UniProt Q01064)
Text: as §1

PDE1A, sequence (P54750 whole entry): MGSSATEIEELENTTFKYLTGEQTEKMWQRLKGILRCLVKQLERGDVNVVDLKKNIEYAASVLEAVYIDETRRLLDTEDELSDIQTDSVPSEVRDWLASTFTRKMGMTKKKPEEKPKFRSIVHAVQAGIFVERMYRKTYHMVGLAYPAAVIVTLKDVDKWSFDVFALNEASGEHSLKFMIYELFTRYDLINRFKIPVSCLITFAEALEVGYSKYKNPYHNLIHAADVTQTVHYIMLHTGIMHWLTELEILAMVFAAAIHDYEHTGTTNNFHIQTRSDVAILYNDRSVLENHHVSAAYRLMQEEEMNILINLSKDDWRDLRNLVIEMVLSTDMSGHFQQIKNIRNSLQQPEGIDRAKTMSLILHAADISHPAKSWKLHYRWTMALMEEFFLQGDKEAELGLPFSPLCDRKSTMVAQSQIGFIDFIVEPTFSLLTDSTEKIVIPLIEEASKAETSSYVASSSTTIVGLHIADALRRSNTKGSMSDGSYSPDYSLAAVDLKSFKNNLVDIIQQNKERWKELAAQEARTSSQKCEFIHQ
PDE1C, sequence (Q14123 whole entry): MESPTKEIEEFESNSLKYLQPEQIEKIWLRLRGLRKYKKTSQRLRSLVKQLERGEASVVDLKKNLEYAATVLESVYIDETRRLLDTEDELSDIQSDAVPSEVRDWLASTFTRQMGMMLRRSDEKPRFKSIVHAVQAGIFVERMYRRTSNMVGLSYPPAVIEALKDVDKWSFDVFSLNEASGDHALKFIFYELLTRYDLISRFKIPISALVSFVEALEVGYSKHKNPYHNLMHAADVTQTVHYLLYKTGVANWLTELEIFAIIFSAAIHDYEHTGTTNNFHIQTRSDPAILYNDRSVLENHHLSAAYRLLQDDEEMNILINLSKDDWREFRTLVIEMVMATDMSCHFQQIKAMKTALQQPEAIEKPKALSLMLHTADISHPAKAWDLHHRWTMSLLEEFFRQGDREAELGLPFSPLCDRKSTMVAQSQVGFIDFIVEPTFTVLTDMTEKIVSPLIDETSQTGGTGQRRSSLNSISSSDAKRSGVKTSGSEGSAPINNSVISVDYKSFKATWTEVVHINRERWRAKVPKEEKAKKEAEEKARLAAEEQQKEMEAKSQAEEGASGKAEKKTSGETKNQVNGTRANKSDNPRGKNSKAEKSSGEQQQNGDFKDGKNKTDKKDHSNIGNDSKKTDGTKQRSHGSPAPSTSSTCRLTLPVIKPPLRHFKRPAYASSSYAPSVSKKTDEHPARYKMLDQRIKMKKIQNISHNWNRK
PDE1B, sequence (Q01064 whole entry): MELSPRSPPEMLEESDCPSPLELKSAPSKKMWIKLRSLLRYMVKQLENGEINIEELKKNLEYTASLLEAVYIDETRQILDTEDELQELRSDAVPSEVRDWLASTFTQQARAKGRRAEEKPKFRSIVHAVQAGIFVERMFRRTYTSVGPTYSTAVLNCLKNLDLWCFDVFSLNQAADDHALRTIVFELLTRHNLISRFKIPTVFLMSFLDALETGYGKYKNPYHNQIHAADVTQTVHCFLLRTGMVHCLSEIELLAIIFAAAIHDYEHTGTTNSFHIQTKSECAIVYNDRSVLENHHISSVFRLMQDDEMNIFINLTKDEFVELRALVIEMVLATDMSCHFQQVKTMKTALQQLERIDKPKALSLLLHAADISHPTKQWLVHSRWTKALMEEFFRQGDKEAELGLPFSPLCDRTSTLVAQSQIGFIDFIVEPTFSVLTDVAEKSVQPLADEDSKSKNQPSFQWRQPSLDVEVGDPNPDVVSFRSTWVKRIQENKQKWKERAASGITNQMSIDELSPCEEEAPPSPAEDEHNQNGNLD

Row | SMILES | IC50 (PDE1A) [nM] | IC50 (PDE1C) [nM] | IC50 (PDE1B) [nM]
1 | CCOc1nnccc1-c1cc(NCc2cnn(C)c2)c2c(n1)c(C)nn2C(C)CC (single isomer, unassigned) [Example 5b, 5-(3-ethoxypyridazin-4-yl)-3-methyl-N-[(1-methylpyrazol-4-yl)methyl]-1-[1-methylpropyl]pyrazolo[4,3-b]pyridin-7-amine] | 25 | 102 | 6.1
2 | CCOc1nnccc1-c1cc(NCc2cnn(C)c2)c2c(n1)c(C)nn2C(C)CC (single isomer, unassigned) [Example 6b, 5-(3-ethoxypyridazin-4-yl)-3-methyl-N-[(1-methylpyrazol-4-yl)methyl]-1-[1-methylpropyl]pyrazolo[4,3-b]pyridin-7-amine] | 1.9 | 11 | 0.36
3 | CCOc1cnccc1-c1cc(NCc2cnn(C)c2)c2c(n1)c(C)nn2C(C)CC (single isomer, unassigned) [Example 32b, 5-(3-ethoxy-4-pyridyl)-3-methyl-N-[(1-methylpyrazol-4-yl)methyl]-1-[1-methylpropyl]pyrazolo[4,3-b]pyridin-7-amine] | 57 | 180 | 7.8
4 | CCOc1nnccc1-c1cc(NCc2ncccn2)c2c(n1)c(C)nn2C(C)C [Example 1b, 5-(3-ethoxypyridazin-4-yl)-1-isopropyl-3-methyl-N-(pyrimidin-2-ylmethyl)pyrazolo[4,3-b]pyridin-7-amine] | 11 | 48 | 1.3
5 | CCOc1ncccc1-c1cc(NCc2cccc3nsnc23)c2c(n1)c(C)nn2C(C)C [Example 2a, N-(2,1,3-benzothiadiazol-4-ylmethyl)-5-(2-ethoxy-3-pyridyl)-1-isopropyl-3-methyl-pyrazolo[4,3-b]pyridin-7-amine] | 53 | 140 | 3.4
6 | COc1nnccc1-c1cc(NCc2cnn(C)c2)c2c(n1)c(C)nn2C(C)C [Example 2b, 1-isopropyl-5-(3-methoxypyridazin-4-yl)-3-methyl-N-[(1-methylpyrazol-4-yl)methyl]pyrazolo[4,3-b]pyridin-7-amine] | 45 | 49 | 8.1
7 | CCOc1ncccc1-c1cc(NCc2cccn3cnnc23)c2c(n1)c(C)nn2C(C)C [Example 3a, 5-(2-ethoxy-3-pyridyl)-1-isopropyl-3-methyl-N-([1,2,4]triazolo[4,3-c]pyridin-8-ylmethyl)pyrazolo[4,3-b]pyridin-7-amine] | 4.7 | – | 0.32
8 | CCOc1nnccc1-c1cc(NCc2cnn(C)c2)c2c(n1)c(C)nn2C(C)C [Example 3b, 5-(3-ethoxypyridazin-4-yl)-1-isopropyl-3-methyl-N-[(1-methylpyrazol-4-yl)methyl]pyrazolo[4,3-b]pyridin-7-amine] | 6.1 | 27 | 1.1
9 | CCOc1ncccc1-c1cc(NCc2cccn3ccnc23)c2c(n1)c(C)nn2C(C)C [Example 4a, 5-(2-ethoxy-3-pyridyl)-N-(imidazo[1,2-a]pyridin-8-ylmethyl)-1-isopropyl-3-methyl-pyrazolo[4,3-b]pyridin-7-amine] | 6.6 | 22 | 0.48
10 | CCCOc1nnccc1-c1cc(NCc2cnn(C)c2)c2c(n1)c(C)nn2C(C)C [Example 4b, 1-isopropyl-3-methyl-N-[(1-methylpyrazol-4-yl)methyl]-5-(3-propoxypyridazin-4-yl)pyrazolo[4,3-b]pyridin-7-amine] | 3.2 | 18 | 0.35
11 | CCOc1ncccc1-c1cc(NCc2cccn3nccc23)c2c(n1)c(C)nn2C(C)C [Example 5a, 5-(2-ethoxy-3-pyridyl)-1-isopropyl-3-methyl-N-(pyrazolo[1,5-a]pyridin-4-ylmethyl)pyrazolo[4,3-b]pyridin-7-amine] | 53 | 95 | 7.1
12 | CCOc1ncccc1-c1cc(NCc2cccc3ncnn23)c2c(n1)c(C)nn2C(C)C [Example 6a, 5-(2-ethoxy-3-pyridyl)-1-isopropyl-3-methyl-N-([1,2,4]triazolo[1,5-a]pyridin-5-ylmethyl)pyrazolo[4,3-b]pyridin-7-amine] | 18 | 64 | 1.4
13 | CCOc1ncccc1-c1cc(NCc2cccc3nc(C)nn23)c2c(n1)c(C)nn2C(C)C [Example 7a, 5-(2-ethoxy-3-pyridyl)-1-isopropyl-3-methyl-N-[(2-methyl-[1,2,4]triazolo[1,5-a]pyridin-5-yl)methyl]pyrazolo[4,3-b]pyridin-7-amine] | 11 | 35 | 0.93
14 | CCOc1nnccc1-c1cc(NCc2cccnc2OC)c2c(n1)c(C)nn2C(C)C [Example 7b, 5-(3-ethoxypyridazin-4-yl)-1-isopropyl-N-[(2-methoxy-3-pyridyl)methyl]-3-methyl-pyrazolo[4,3-b]pyridin-7-amine] | 11 | – | 1.7
15 | CCOc1nnccc1-c1cc(NCc2cccc3oc(C)nc23)c2c(n1)c(C)nn2C(C)C [Example 14a, 5-(3-ethoxypyridazin-4-yl)-1-isopropyl-3-methyl-N-[(2-methyl-1,3-benzoxazol-4-yl)methyl]pyrazolo[4,3-b]pyridin-7-amine] | 9.3 | – | 0.21
16 | CCOc1nnccc1-c1cc(NCc2ccccn2)c2c(n1)c(C)nn2C(C)C [Example 14b, 5-(3-ethoxypyridazin-4-yl)-1-isopropyl-3-methyl-N-(2-pyridylmethyl)pyrazolo[4,3-b]pyridin-7-amine] | – | 53 | 1.1
17 | CCOc1nnccc1-c1cc(NCc2cc(C)[nH]n2)c2c(n1)c(C)nn2C(C)C [Example 22b, 5-(3-ethoxypyridazin-4-yl)-1-isopropyl-3-methyl-N-[(5-methyl-1H-pyrazol-3-yl)methyl]pyrazolo[4,3-b]pyridin-7-amine] | – | 15 | 0.4
18 | CCOc1nnccc1-c1cc(NCc2cccc(OC)n2)c2c(n1)c(C)nn2C(C)C [Example 24b, 5-(3-ethoxypyridazin-4-yl)-1-isopropyl-N-[(6-methoxy-2-pyridyl)methyl]-3-methyl-pyrazolo[4,3-b]pyridin-7-amine] | – | 71 | 1.4
19 | CCOc1nnccc1-c1cc(NCc2cccc(F)n2)c2c(n1)c(C)nn2C(C)C [Example 26b, 5-(3-ethoxypyridazin-4-yl)-N-[(6-fluoro-2-pyridyl)methyl]-1-isopropyl-3-methyl-pyrazolo[4,3-b]pyridin-7-amine] | 6.5 | 44 | –
20 | CCOc1cnccc1-c1cc(NCc2cnn(C)c2)c2c(n1)c(C)nn2C(C)C [Example 28b, 5-(3-ethoxy-4-pyridyl)-1-isopropyl-3-methyl-N-[(1-methylpyrazol-4-yl)methyl]pyrazolo[4,3-b]pyridin-7-amine] | – | 33 | 2.1
21 | Cc1nc2c(-c3cc(NCc4cnn(C)c4)c4c(n3)c(C)nn4C(C)C)cccc2o1 [Example 35b, 1-isopropyl-3-methyl-5-(2-methyl-1,3-benzoxazol-4-yl)-N-[(1-methylpyrazol-4-yl)methyl]pyrazolo[4,3-b]pyridin-7-amine] | 39 | 43 | –
